These results are taken from PMC8544881 (mSphere, 2021).

The experiment concerns the target T1, ZBTB25 (Homo sapiens, UniProt P24278).
T1 construct: recombinant ZBTB25 protein
T1 sequence (P24278 1-435): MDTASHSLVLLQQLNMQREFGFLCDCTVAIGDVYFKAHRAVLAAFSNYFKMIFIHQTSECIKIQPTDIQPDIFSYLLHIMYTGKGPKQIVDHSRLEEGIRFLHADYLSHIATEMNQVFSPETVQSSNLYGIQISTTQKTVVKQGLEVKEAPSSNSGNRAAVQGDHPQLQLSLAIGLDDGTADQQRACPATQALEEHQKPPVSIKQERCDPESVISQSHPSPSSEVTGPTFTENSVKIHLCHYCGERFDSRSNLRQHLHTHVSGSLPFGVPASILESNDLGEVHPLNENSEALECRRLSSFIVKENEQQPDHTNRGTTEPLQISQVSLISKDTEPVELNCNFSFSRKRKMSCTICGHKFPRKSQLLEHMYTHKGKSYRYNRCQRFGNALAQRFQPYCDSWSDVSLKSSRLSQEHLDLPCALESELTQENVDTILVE
Kind of experiment: zinc ejection assay with FluoZin-3 fluorescence. The class given is binding.

What is called IC50 is the point on the concentration scale where inhibition reaches its midpoint. Low values mean higher potency, high ones lower potency. For `CCN(CC)C(=S)SSC(=S)N(CC)CC` [DS, disulfiram], it took 10.3 ± 0.3 µM to reach half-maximal inhibition (IC50).

dithiopyridine [DP]: half-maximal inhibition (IC50) was put at 4.61 ± 0.28 µM.
